Measured values taken from US10557115B2, “Medium containing uridine and N-acetyl-D-mannosamine” (JCR Pharmaceuticals Co., Ltd., priority 2015, dated 2020).

What was measured:
[1] = system: CHO cells for expression of recombinant human FSH; experiment: Sialic acid content (HPLC peak area) of recombinant human FSH from cells cultured in supplemented medium; format: cell-based, Chinese hamster; details: for relative value of sialic acid peak area of recombinant human FSH (basic medium = 100%): basic medium added with 8 mM N-acetyl-D-mannosamine and/or 3 mM uridine, 5 days at 37° C., FIG. 9
Procedure: (§1) The above master cells stored in liquid nitrogen were quickly thawed in 37° C. thermostatic bath, and suspended in a basic medium, the CD Opti CHO™ medium (Life Technologies Inc.) supplemented with 2 mM of GlutaMAX (Life Technologies Inc.) and 1×HT Supplement (Life Technologies Inc.). Then, the cells were precipitated by centrifugation and corrected. The corrected cells were suspended with the basic medium to obtain cell suspension, and the number of the living cells was counted. The cell suspension was diluted to the living cell density of 2×10^5 cells/mL with the basic medium.
The cell suspension was dispensed into culture vessels by 120 mL each to generate four groups and incubated for five days at 37° C. under 5% CO2. This incubation was conducted by using Bio Jr. 8 (100 mL×8 vessels culture device, AbleBiott Inc.), and pH of the medium was kept at 6.9 and the dissolved oxygen level (DO) was kept at 40% during the incubation. […]
50 μL of the concentrated solution of the purified recombinant human FSH of each of the groups was alkali-treated with 0.3M sodium hydroxide at 37° C. for 30 minutes, subsequently was acid-treated with 0.05M hydrochloric acid at 80° C. for 60 minutes to make glycans composing recombinant human FSH hydrolyzed to monosaccharides. Then, the solution were added with fluorescence reagent (a solution containing 9.6 mM of 1,2-diamino-4,5-methylene-dioxybenzene dihydrochloride, 24 mM of sodium hydrosulfite, and 1M of 2-mercaptoethanol), and heated at 50° C. for 150 minutes to fluorescently label the monosaccharides obtained by the hydrolysis. […] As a standard, sialic acid was concurrently treated with the same manner, and the standard of fluorescence-labeled sialic acid was obtained. The standard thus obtained was analyzed by HPLC using COSMOSIL 5C18-PAQ as reverse phase column, and the elution time of sialic acid, the time when the peak corresponding to sialic acid appeared, was measured. And each of the sample solutions was analyzed by HPLC and the area of peak corresponding to sialic acid was calculated. […]

[2] = system: CHO cells for expression of recombinant human erythropoietin; experiment: Capillary electrophoresis isoform analysis of recombinant human erythropoietin from cells cultured in supplemented medium; format: cell-based, Chinese hamster; details: basic medium added with 8 mM N-acetyl-D-mannosamine and/or 3 mM uridine, 5 days at 37° C., FIG. 3; for ratio of type I isoform to sum of all detected isoforms of recombinant human erythropoietin: type I = lowest isoelectric point
Procedure: as §1, with “obtain the” for “obtain”
The cell suspension was dispensed into culture vessels by 120 mL each to generate four groups and incubated for five days at 37° C. under 5% CO2. This incubation was conducted by using Bio Jr.8 (100 mL×8 vessels culture device, AbleBiott Inc.), and pH of the medium was kept at 6.9 and the dissolved oxygen level (DO) was kept at 40% during the incubation. At this time, uridine and N-acetyl-D-mannosamine were added at the concentration as shown in Table 1 to each of the groups (group 1 to group 4). The incubation was conducted four times for each of the groups.
On the fifth day of the incubation above, 10 mL of each of the cultures was corrected to centrifuging tubes and centrifuged at 3,000 rpm for 10 minutes. Then, the culture supernatants were corrected and diluted 1.5 times with purified water. Then, 7.5 mL of each of these diluted culture supernatants was loaded on Capto™ adhere column, a multi-modal anion exchange resin (column volume: 1 mL, GE Healthcare Bioscience Inc.) pre-equilibrated with 20 mM Tris buffer (pH 7.5). After washing the column with 5 column volumes of 20 mM Tris buffer (pH 7.5), recombinant human erythropoietin adsorbed by the resin was eluted with 20 mM Tris buffer (pH 7.5) containing 200 mM of NaCl to obtain eluted fractions. And the eluted fractions were concentrated by Amicon Ultra-4 Centrifugal Filter Units (molecular weight cut off: 3 kDa, Millipore Inc.) to 100 μL of volume.
The concentrated solution of each of the groups was subjected capillary electrophoresis by using Bare Fused-Silica Capillary (50 μm ID, 375 μm OD, 50 cm length, Beckmann Coulter Inc.) attached to capillary electrophoresis system (P/ACE™ system MDQ, Beckmann Coulter Inc.). In doing this, 10 mM Tris buffer (pH 4.5) containing 10 mM of sodium chloride, 500 mM of sodium acetate, 7 M of urea, and 2.5 mM of putrescine was used as an electrophoresis buffer, and the electrophoresis was performed at constant current of 24 μA for 50 minutes. Further the wave length at 214 nm was monitored by an UV detector to detect the recombinant human erythropoietin subjected to the electrophoresis.
The isoform showing the lowest isoelectric point among the isoforms showing different isoelectric points when detected by the capillary electrophoresis above was named as type I, and further the isoforms were named as type II and type III in ascending order of isoelectric point. The ratios of type I, type II, and type III to sum of all of detected isoforms were calculated, respectively. And the ratios were compared between the groups. The ratios of type I, type II, and type III in the recombinant human erythropoietin of the group 1 obtained by culturing the cells in the basic medium were about 0.7%, about 5%, and about 15%, respectively (FIG. 3).

Compound: CC(=O)N[C@@H]1C(O)O[C@H](CO)[C@@H](O)[C@@H]1O (stereo partly drawn) [N-acetyl-D-mannosamine]
- relative value of sialic acid peak area of recombinant human FSH (basic medium = 100%) [1]: about 100%
- ratio of type II isoform to sum of all detected isoforms of recombinant human erythropoietin [2]: about 7%
- ratio of type III isoform to sum of all detected isoforms of recombinant human erythropoietin [2]: about 20.7%
- ratio of type I isoform to sum of all detected isoforms of recombinant human erythropoietin [2]: about 1.2%

Compound: O=c1ccn([C@@H]2O[C@H](CO)[C@@H](O)[C@H]2O)c(=O)[nH]1 [uridine]
- increase of average number of sialic acid molecules per molecule of recombinant human FSH versus basic medium ([1]; basic medium added with 3 mM uridine, or with 8 mM N-acetyl-D-mannosamine and 3 mM uridine): about 10%
- relative value of sialic acid peak area of recombinant human FSH (basic medium = 100%) [1]: about 112%
- ratio of type II isoform to sum of all detected isoforms of recombinant human erythropoietin [2]: about 3.5%
- ratio of type III isoform to sum of all detected isoforms of recombinant human erythropoietin [2]: about 13%
- ratio of type I isoform to sum of all detected isoforms of recombinant human erythropoietin [2]: about 0.3%
